From DBAASP
≈ marks a conversion by molar mass, not a printed value. Where “and” joins values, the source holds several entries; their conditions need not be identical. Equal values may be shown once.

What was measured:
Assay in all cases: ≥ marks a high value that may be exact or a test limit, other limits are often not marked, values filed in µg/mL are converted to µM
[1] = tested on: Acinetobacter baumannii CCARM 12005
[2] = tested on: Acinetobacter baumannii CCARM 12035
[3] = tested on: Acinetobacter baumannii CCARM 12036
[4] = tested on: Acinetobacter baumannii CCARM 12037
[5] = tested on: Bacillus subtilis KCTC 1021
[6] = tested on: Bacillus subtilis KCTC 1022
[7] = tested on: Bacillus subtilis KCTC 3068
[8] = tested on: Escherichia coli CCARM 1229
[9] = tested on: Escherichia coli CCARM 1238
[10] = tested on: Escherichia coli KCTC 1682
[11] = tested on: Escherichia coli KCTC 2571
[12] = tested on: Escherichia coli KCTC 2593
[13] = tested on: Pseudomonas aeruginosa CCARM 2002
[14] = tested on: Pseudomonas aeruginosa CCARM 2003
[15] = tested on: Pseudomonas aeruginosa CCARM 2095
[16] = tested on: Pseudomonas aeruginosa CCARM 2163
[17] = tested on: Pseudomonas aeruginosa KCTC 1637
[18] = tested on: Pseudomonas aeruginosa KCTC 2004
[19] = tested on: Pseudomonas aeruginosa KCTC 2513
[20] = tested on: Salmonella typhimurium CCARM 8003
[21] = tested on: Salmonella typhimurium CCARM 8007
[22] = tested on: Salmonella typhimurium CCARM 8009
[23] = tested on: Salmonella typhimurium KCTC 1926
[24] = tested on: Staphylococcus aureus CCARM 3089
[25] = tested on: Staphylococcus aureus CCARM 3090
[26] = tested on: Staphylococcus aureus CCARM 3108
[27] = tested on: Staphylococcus aureus CCARM 3114
[28] = tested on: Staphylococcus aureus CCARM 3126
[29] = tested on: Staphylococcus aureus KCTC 1621
[30] = tested on: Staphylococcus aureus KCTC 1916
[31] = tested on: Staphylococcus aureus KCTC 3881
[32] = tested on: Staphylococcus epidermidis KCTC 1917
Bacillus subtilis PS832 = tested on: Bacillus subtilis PS832
Escherichia coli DL7 = tested on: Escherichia coli DL7
[33] = tested on: Klebsiella aerogenes ATCC 13048
[34] = tested on: Staphylococcus epidermidis ATCC 12228
[35] = tested on: Escherichia coli ATCC 25922
[36] = tested on: Klebsiella pneumoniae ATCC 700603
[37] = tested on: Pseudomonas aeruginosa ATCC 27853
[38] = tested on: Staphylococcus aureus ATCC 29213
[39] = tested on: Staphylococcus aureus ATCC 33591
[40] = tested on: Staphylococcus aureus ATCC 700699
[41] = tested on: Bacillus subtilis KCTC 3038
[42] = tested on: Enterococcus casseliflavus
[43] = tested on: Enterococcus faecalis ATCC 29212
Enterococcus faecium = tested on: Enterococcus faecium
Enterococcus gallinarum = tested on: Enterococcus gallinarum
[44] = tested on: Saccharomyces cerevisiae ATCC 44774
[45] = tested on: Salmonella typhimurium KCTC 2370
Staphylococcus aureus = tested on: Staphylococcus aureus

SMILES: CC[C@H](C)[C@H](NC(=O)CNC(=O)[C@H](CCCN=C(N)N)NC(=O)[C@H](CCCCN)NC(=O)[C@@H](NC(=O)[C@H](Cc1cnc[nH]1)NC(=O)[C@H](Cc1cnc[nH]1)NC(=O)[C@H](Cc1ccccc1)NC(=O)[C@@H](N)Cc1ccccc1)[C@@H](C)CC)C(=O)N[C@H](C(=O)N[C@@H](Cc1cnc[nH]1)C(=O)N[C@H](C(=O)NCC(=O)N[C@@H](CCCCN)C(=O)N[C@H](C(=O)N[C@H](C(=O)N[C@@H](Cc1cnc[nH]1)C(=O)N[C@@H](CCCN=C(N)N)C(=O)N[C@@H](CC(C)C)C(=O)N[C@H](C(=O)N[C@H](C(=O)NCC(=O)O)[C@@H](C)O)C(C)C)[C@@H](C)CC)[C@@H](C)O)C(C)C)C(C)C [FFHHIKRGIVHVGKTIHRLVTG]
- MIC [1]: 4 µM (≈ 10.2 µg/mL)
- MIC [2]: 4 µM (≈ 10.2 µg/mL)
- MIC [3]: 4 µM (≈ 10.2 µg/mL)
- MIC [4]: 4 µM (≈ 10.2 µg/mL)
- MIC [5]: 4 µM (≈ 10.2 µg/mL)
- MIC [6]: 1 µM (≈ 2.55 µg/mL)
- MIC [7]: 4 µM (≈ 10.2 µg/mL)
- MIC [8]: 16 µM (≈ 40.8 µg/mL)
- MIC [9]: 16 µM (≈ 40.8 µg/mL)
- MIC [10]: 4 µM (≈ 10.2 µg/mL)
- MIC [11]: 4 µM (≈ 10.2 µg/mL)
- MIC [12]: 2 µM (≈ 5.11 µg/mL)
- MIC [13]: 4 µM (≈ 10.2 µg/mL)
- MIC [14]: 4 µM (≈ 10.2 µg/mL)
- MIC [15]: 4 µM (≈ 10.2 µg/mL)
- MIC [16]: 4 µM (≈ 10.2 µg/mL)
- MIC [17]: 8 µM (≈ 20.4 µg/mL)
- MIC [18]: 8 µM (≈ 20.4 µg/mL)
- MIC [19]: 8 µM (≈ 20.4 µg/mL)
- MIC [20]: 16 µM (≈ 40.8 µg/mL)
- MIC [21]: 16 µM (≈ 40.8 µg/mL)
- MIC [22]: 16 µM (≈ 40.8 µg/mL)
- MIC [23]: 8 µM (≈ 20.4 µg/mL)
- MIC [24]: 16 µM (≈ 40.8 µg/mL)
- MIC [25]: 16 µM (≈ 40.8 µg/mL)
- MIC [26]: 16 µM (≈ 40.8 µg/mL)
- MIC [27]: 16 µM (≈ 40.8 µg/mL)
- MIC [28]: 16 µM (≈ 40.8 µg/mL)
- MIC [29]: 4 µM (≈ 10.2 µg/mL)
- MIC [30]: 4 µM (≈ 10.2 µg/mL)
- MIC [31]: 4 µM (≈ 10.2 µg/mL)
- MIC [32]: 2 µM (≈ 5.11 µg/mL)

SMILES: CC(C)C[C@H](NC(=O)[C@H](CCCCN)NC(=O)[C@H](C)NC(=O)[C@H](CC(C)C)NC(=O)[C@H](CCCCN)NC(=O)[C@H](CCCCN)NC(=O)[C@H](C)NC(=O)[C@H](CC(C)C)NC(=O)[C@H](CCCCN)NC(=O)[C@H](C)NC(=O)[C@H](CC(C)C)NC(=O)[C@H](CCCCN)NC(=O)[C@H](Cc1cnc[nH]1)NC(=O)CNC(=O)CN)C(=O)N[C@@H](C)C(=O)N[C@@H](CCCCN)C(N)=O [GGHKLAKLAKKLAKLAK]
- MIC (Bacillus subtilis PS832): 0.125 µM and 0.06 µM
- MIC (Escherichia coli DL7): 0.125 µM and 0.06 µM
- MIC [33]: ≥ 32 µM
- MIC [34]: 1 µM (≈ 1.77 µg/mL)

SMILES: CC[C@H](C)[C@H](NC(=O)[C@H](CC(=O)O)NC(=O)[C@H](CCCCN)NC(=O)[C@H](C)NC(=O)[C@H](C)NC(=O)CNC(=O)[C@H](CCCCN)NC(=O)[C@H](CC(C)C)NC(=O)[C@@H](NC(=O)[C@H](CC(=O)O)NC(=O)[C@@H](NC(=O)[C@@H](NC(=O)CN)C(C)C)C(C)C)[C@@H](C)CC)C(=O)N[C@@H](C)C(=O)NCC(=O)N[C@@H](Cc1cnc[nH]1)C(=O)N[C@@H](CC(C)C)C(=O)N[C@@H](C)C(=O)N[C@@H](CO)C(=O)N[C@@H](CCCCN)C(=O)N[C@H](C(=O)N[C@@H](CCSC)C(=O)N[C@@H](CC(N)=O)C(=O)N[C@@H](C)C(=O)N[C@@H](CC(C)C)C(N)=O)C(C)C [GVVDILKGAAKDIAGHLASKVMNAL]
- MIC [35]: 100 µM (≈ 249 µg/mL)
- MIC [36]: > 100 µM
- MIC [37]: > 100 µM
- MIC [38]: > 100 µM
- MIC [39]: ≥ 100 µM
- MIC [40]: ≥ 100 µM

SMILES: CC[C@H](C)[C@H](NC(=O)[C@H](CCCCN)NC(=O)[C@H](CCC(N)=O)NC(=O)[C@H](CCCCN)NC(=O)[C@@H](NC(=O)[C@@H](NC(=O)[C@H](CCC(N)=O)NC(=O)[C@@H](NC(=O)[C@@H](NC(=O)[C@@H]1CCCN1C(=O)[C@H](CCCN=C(N)N)NC(=O)[C@@H](NC(=O)[C@@H](NC(=O)[C@@H](N)CCCN=C(N)N)[C@@H](C)CC)[C@@H](C)CC)[C@@H](C)CC)[C@@H](C)CC)[C@@H](C)CC)[C@@H](C)CC)C(=O)N[C@@H](CCCN=C(N)N)C(=O)O [RIIRPIIQIIKQKIR]
- MIC [41]: 1.06 µM (≈ 2 µg/mL)
- MIC [42]: 1.06 µM (≈ 2 µg/mL)
- MIC [43]: 1.06 µM (≈ 2 µg/mL)
- MIC (Enterococcus faecium): 1.06 µM (≈ 2 µg/mL)
- MIC (Enterococcus gallinarum): 1.06 µM (≈ 2 µg/mL)
- MIC [44]: 2.12 µM (≈ 4 µg/mL)
- MIC [45]: 2.12 µM (≈ 4 µg/mL)
- MIC (Staphylococcus aureus): 1.5 µM (≈ 2.83 µg/mL)
